Experimental data: PMC8344233, “Anticancer activity and toxicity of new quaternary ammonium geldanamycin derivative salts and their mixtures with potentiators” (Journal of Enzyme Inhibition and Medicinal Chemistry, 2021)
Converted amounts (≈) assume the structure as drawn.

Tests used:
HeLa = assay: MTT cytotoxicity assay, HeLa (1st panel); format: cell-based, human; details: for IC50: Homo sapiens, HeLa, ± SD, MTT, 72 h; for selectivity index SI (HeLa): IC50 normal cell line CCD39Lu/IC50 HeLa
Procedure: (§1) Cell survival was measured as the percentage absorbance compared to the control (nontreated cells). […]
(§2) SI indexes were calculated from equation SI = IC50 normal cell line HDF/IC50 respective cancerous cell line (Table 2). A beneficial SI > 1.0 indicates a compound with efficacy against tumor cell greater than the toxicity against normal cells.
(§3) All experiments were carried out with human breast adenocarcinoma (MDA-MB-231 and MCF-7), hepatocellular carcinoma (HepG2), human cervical adenocarcinoma (HeLa) cancer cell lines, and human normal lung fibroblast (CCD39Lu) cell line. The cell line was purchased from the European Collection of Cells Cultures (ECACC, Salisbury, UK), and cultured in DMEM with phenol red supplemented with 10% (v/v) FBS, 1% (v/v) penicillin/streptomycin, and 1% (v/v) L-glutamine at 37 °C, in a humidified atmosphere containing 5% CO2.
(§4) The tested compounds were dissolved in DMSO to the final concentration 10 mM and stored […]
(§5) The cytotoxic effect of the tested compounds was determined by MTT assay. MDA-MB-231, MCF-7, HepG2, HeLa, and CCD39Lu cells were seeded in 96 wells plates at density 2x10^4 cells/well and incubated overnight under cell culture condition. Next, cells were treated with tested compounds at concentrations of 10 µM; 5 µM; 2.5 µM; 1.2 µM; 0.6 µM; 0.3 µM; 0.15 […]
(§6) µM. Moreover, GDM (for MCF-7) and 8 (for MCF-7 and MDA-MB-231) due to high cytotoxicity, were additionally tested at a lower concentration range of 2.5 µM; 1.2 µM; 0.6 µM; 0.3 µM; 0.15µM; 0.07 µM; 0.03 µM. DMSO was used as a control, and the concentration […]
(§7) Tested compounds were added to cells in the medium without phenol red. Cells were incubated 72 h at 37 °C in a humidified atmosphere containing 5% CO2.
(§8) Then, the medium was aspirated and MTT solution at a concentration of 0.59 mg/mL in cell culture medium was added to each well. Plates were incubated for 1.5 hours at 37 °C, and then plates were centrifuged for 3 minutes. The formazan crystals were dissolved in 200 µl DMSO and plates were agitated on a plate shaker at 300 –500 rpm for 10 minutes. Absorbance at 570 nm was measured using a plate reader (Biotek Instruments, Elx -800). Data were normalized to the mean absorption of control cells. All experiments were performed at least three times. […]

HepG2 = assay: MTT cytotoxicity assay, HepG2 (1st panel); format: cell-based, human; details: for IC50: Homo sapiens, HepG2, ± SD, MTT, 72 h; for selectivity index SI (HepG2): IC50 normal cell line CCD39Lu/IC50 HepG2
Procedure: as §1, §2, §3, §4, §5, §6, §7, §8

MCF-7 = assay: MTT cytotoxicity assay, MCF-7 (1st panel); format: cell-based, human; details: for IC50: Homo sapiens, MCF7, 72 h, ± SD, MTT, 72 h; for selectivity index SI (MCF-7): IC50 normal cell line CCD39Lu/IC50 MCF-7
Procedure: as §1, §2, §3, §4, §5, §6, §7, §8

CCD39Lu = assay: MTT cytotoxicity assay, normal lung fibroblasts CCD39Lu; format: cell-based; details: Fibroblast, ± SD, healthy human lung fibroblasts, 72 h, read-out: IC50 CCD39Lu (toxicity in normal cells)
Procedure: as §1, §2, §3, §4, §5, §6, §7, §8

MDA-MB-231 = assay: MTT cytotoxicity assay, MDA-MB-231 (1st panel); format: cell-based, human; details: for IC50: Homo sapiens, MDA-MB-231, ± SD, MTT, 72 h; for selectivity index SI (MDA-MB-231): IC50 normal cell line CCD39Lu/IC50 MDA-MB-231
Procedure: as §1, §2, §3, §4, §5, §6, §7, §8

SKBR-3 = assay: SRB cytotoxicity assay, SKBR-3 (2nd panel); format: cell-based, human
Procedure: (§9) Human cancer cells SKBR-3 (human breast cancer cell line) and SKOV-3 (ovarian cancer cell line) were cultured in McCoy’s Modified Medium. […]
(§10) Medium. Human Dermal Fibroblasts cell line (HDF) was cultured in Fibroblast Basal Medium.
(§11) Each medium was supplemented with 10% fetal bovine serum, 1% L-glutamine, and 1% penicillin/streptomycin solution. The cell lines were kept in the incubator at 37◦C. The optimal plating density of cell lines was determined to be 5 × 104. All the cell lines and mediums were obtained from American Type Culture Collection (ATCC) supplied by LGC-Standards. The protein-staining SRB (Sigma-Aldrich) microculture colorimetric assay, developed by the National Cancer Institute (USA) for in vitro antitumor screening was used in this study, to estimate the cell number by providing a sensitive index of total cellular protein content, being linear to cell density. The monolayer cell culture was trypsinized and the cell count was adjusted to 5 × 10^4 cells. To each well of the 96 well microtiter plate, 0.1 mL of the diluted cell suspension (approximately […]) was added. After 24 hours, when a partial monolayer was formed, the supernatant was washed out and 100 μL of six different compound concentrations (0.1, 0.2, 1, 2, 10, and 20 μM) were added to the cells in microtitre plates. The tested compounds were dissolved in DMSO (containing 10 % of water) (100 μL) and the […]
(§12) lines. The cells were exposed to compounds for 72 hours at 37 °C in a humidified atmosphere (90% RH) containing 5% CO2. After that, 25 μL of 50 % trichloroacetic acid was added to the wells and the plates were incubated for 1 hour at 4◦C. The plates were then washed out with the distilled water to remove traces of medium and next dried by the air. The air-dried plates were stained with 100 μL of 0.4% sulforhodamine B (prepared in 1 % acetic acid) and kept for 30 minutes at room temperature. The unbound dye was removed by rapidly washing with 1% […]
(§13) acetic acid and then air dried overnight. The protein-bound dye was dissolved in 100 μL of 10 mM unbuffered Tris base (pH 10.5) for optical density determination at 490 nm. All cytotoxicity experiments were performed three times. Cell survival was measured as the percentage absorbance compared to the control (nontreated cells). Cytarabine (ara-C) and GDM were used as the internal standards. Additionally biological assays were performed in Human Dermal Fibroblasts cell line (HDF) in aim to evaluate cytotoxicity of GDM and its 1-13 analogs in healthy cells. SI indexes were calculated from equation SI = IC50 normal cell line HDF/IC50 respective cancerous cell line (Table 2). A beneficial SI > 1.0 indicates a compound with efficacy against tumor cell greater than the toxicity against normal cells. […]

PC-3 = assay: SRB cytotoxicity assay, PC-3 (2nd panel); format: cell-based, human
Procedure: as §10, §11, §12, §13

HDF = assay: SRB cytotoxicity assay, human dermal fibroblasts HDF; format: cell-based; details: 72 h, ± SD, mixtures equimolar 1:1, read-out: IC50 HDF (toxicity in normal cells)
Procedure: as §10, §11, §12, §13

physchem = details: water, Solubility SH2O
U-87 = assay: SRB cytotoxicity assay, U-87 (2nd panel); format: cell-based, human
Procedure: U-87MG cells (glioblastoma cell line) were cultured in Eagle’s Minimal Essential Medium. Human Dermal Fibroblasts cell line (HDF) was cultured in Fibroblast Basal Medium.
as §11, §12, §13

SKOV-3 = assay: SRB cytotoxicity assay, SKOV-3 (2nd panel); format: cell-based, human
Procedure: as §9, §10, §11, §12, §13

A-549 = assay: SRB cytotoxicity assay, A-549 (2nd panel); format: cell-based, human
Procedure: as §10, §11, §12, §13

Row | Structure (SMILES) | IC50 (HeLa) | selectivity index SI (HeLa) (HeLa) | IC50 (HepG2) | selectivity index SI (HepG2) (HepG2) | IC50 (MCF-7) | selectivity index SI (MCF-7) (MCF-7) | IC50 (CCD39Lu) | IC50 (MDA-MB-231) | selectivity index SI (MDA-MB-231) (MDA-MB-231) | further results
1 | CO[C@H]1/C=C\C=C(/C)C(=O)NC2=CC(=O)C(NC3CCC(O)CC3)=C(C[C@@H](C)C[C@H](OC)[C@H](O)[C@@H](C)/C=C(\C)[C@@H]1OC(N)=O)C2=O (stereo partly shown) [Compound 4] | > 10 µM | > 1 | > 10 µM | > 1 | > 10 µM | > 1 | > 10 µM | > 10 µM | > 1 | solubility (Water solubility SH2O): 40 µg/mL (≈ 62.1 µM)
2 | CO[C@H]1/C=C\C=C(/C)C(=O)NC2=CC(=O)C(NC3C[N+]4(Cc5ccc([N+](=O)[O-])o5)CCC3CC4)=C(C[C@@H](C)C[C@H](OC)[C@H](O)[C@@H](C)/C=C(\C)[C@@H]1OC(N)=O)C2=O (stereo partly shown) [Compound 11] | 8.91 ± 3.19 µM | > 1.12 | 8.86 ± 0.17 µM | > 1.13 | 4.67 ± 2 µM | > 2.14 | > 10 µM | 3.93 ± 1.6 µM | > 2.54 | IC50 (SKBR-3; Homo sapiens, SK-BR-3, ± SD, SRB, 72 h, mixtures equimolar 1:1): 6.49 ± 0.07 µM; selectivity index SIHDF (SKBR-3) (SKBR-3; IC50 normal cell line HDF/IC50 SKBR-3): 1.22; IC50 (PC-3; Homo sapiens, PC-3, ± SD, SRB, 72 h, mixtures equimolar 1:1): 6.22 ± 0.13 µM; selectivity index SIHDF (PC-3) (PC-3; IC50 normal cell line HDF/IC50 PC-3): 1.27; CC50 (HDF): 7.91 ± 0.91 µM; solubility (physchem): 2300 µg/mL; IC50 (U-87; Homo sapiens, U-87 MG, ± SD, SRB, 72 h): 6.06 ± 0.58 µM; selectivity index SIHDF (U-87) (U-87; IC50 normal cell line HDF/IC50 U-87): 1.31; IC50 (SKOV-3; Homo sapiens, SK-OV-3, ± SD, SRB, 72 h, mixtures equimolar 1:1): 6.04 ± 0.38 µM; selectivity index SIHDF (SKOV-3) (SKOV-3; IC50 normal cell line HDF/IC50 SKOV-3): 1.31; IC50 (A-549; Homo sapiens, A549, ± SD, SRB, 72 h): 6.83 ± 0.32 µM; selectivity index SIHDF (A-549) (A-549; IC50 normal cell line HDF/IC50 A-549): 1.16
